{
  "source": "patent EP4570800A1",
  "about": "“CRYSTAL FORM OF PYRIDINOPYRIMIDINONE COMPOUND, ACID SALT THEREOF, CRYSTAL FORM OF ACID SALT THEREOF, AND USE” (Wuhan Humanwell Innovative Drug Research and Development …, priority 2022, dated 2024)",
  "key": {"LOVO colorectal cancer": {"tested_on": "LOVO colorectal cancer", "experiment": "In vivo efficacy test on LOVO colorectal cancer", "parameters": "species or system mice", "conditions": "50 mg/kg, BID", "description": "After one week of adaptive feeding of mice, LOVO cells in a logarithmic phase were resuspended in serum-free F12K, 5 × 10^6 LOVO cells were inoculated subcutaneously at the right flank at 100 µL per mouse, and tumor growth was observed regularly. When the tumor grew to an average volume of 150 to 200 mm^3, the mice were randomly divided into a model group and an administration group based on the tumor size and body weight. The tumor size and body weight were measured and recorded before and during the administration. After the treatment, the tumor size in the model group was compared with that in the administration group to determine the efficacy."}, "[1]": {"tested_on": "Mia Paca-2 pancreatic cancer", "experiment": "In vivo efficacy test on Mia Paca-2 pancreatic cancer", "parameters": "species or system mice", "conditions": "for Average tumor weight at the end of the treatment / Tumor weight inhibition rate (relative to the vehicle group): BID", "description": "After one week of adaptive feeding of mice, Mia Paca-2 cells in a logarithmic phase were resuspended in serum-free DMEM, and then mixed with Matrigel in a ratio of 1: 1. 1 × 10^7 Mia Paca-2 cells were inoculated subcutaneously at the right flank at 100 µL per mouse, and tumor growth was observed regularly. When the tumor grew to an average volume of 150 to 200 mm^3, the mice were randomly divided into a model group and an administration group (single drug, in combination with trametinib) based on the tumor size and body weight. The tumor size and body weight were measured and recorded before and during the administration. After the treatment, the tumor size in the model group was compared with that in the administration group to determine the efficacy."}, "CYP3A4": {"biological_target": "T1, CYP3A4 (Homo sapiens, UniProt P08684)", "T1 construct": "A human liver microsome solution at a concentration of 0.2 mg/mL was prepared; from tissue; host or cells: human liver microsomes", "T1 sequence (P08684 whole entry)": "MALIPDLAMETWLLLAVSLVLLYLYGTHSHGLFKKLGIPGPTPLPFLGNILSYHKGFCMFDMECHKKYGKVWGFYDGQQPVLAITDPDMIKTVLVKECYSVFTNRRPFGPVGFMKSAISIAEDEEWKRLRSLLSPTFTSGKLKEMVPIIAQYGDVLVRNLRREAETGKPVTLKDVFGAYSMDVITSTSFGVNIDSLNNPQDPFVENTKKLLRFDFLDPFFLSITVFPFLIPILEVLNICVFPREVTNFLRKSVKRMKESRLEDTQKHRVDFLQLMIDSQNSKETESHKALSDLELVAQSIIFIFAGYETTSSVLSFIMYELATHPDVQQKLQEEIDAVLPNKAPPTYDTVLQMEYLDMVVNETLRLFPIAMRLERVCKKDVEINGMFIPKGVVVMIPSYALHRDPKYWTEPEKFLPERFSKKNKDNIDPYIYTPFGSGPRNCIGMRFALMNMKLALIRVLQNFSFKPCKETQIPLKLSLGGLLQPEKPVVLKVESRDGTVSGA", "experiment": "Cytochrome P450 inhibition test (CYP3A4, substrates midazolam and testosterone)", "type": "in vitro ADME", "conditions": "compound 10 µM, human liver microsomes", "method": "The inhibitory potential of compounds on cytochrome P450 (CYP450) subtype CYP3A4 (two substrates of midazolam and testosterone) was detected. First, the compound to be tested was prepared into a 10 mM stock solution in DMSO solvent, and the CYP3A4 inhibitor ketoconazole was prepared as 10 mM, 2.5 mM, and 2.5 mM stock solutions in DMSO solvent. The test compound and ketoconazole were diluted to 400-fold final concentration (compound: 10 µM, ketoconazole: 2.5 µM) with acetonitrile.\nNADPH cofactor (10 mL of potassium phosphate buffer added with 66.7 mg NADPH) at 4-fold final concentration and substrates were prepared with potassium phosphate buffer (0.1 M, pH = 7.4), with CYP3A4 substrate midazolam at a final concentration of 320 µM and CYP3A4 substrate testosterone at a final concentration of 20 µM.\nA human liver microsome solution at a concentration of 0.2 mg/mL was prepared with potassium phosphate buffer on ice. A solution of the compound to be tested and a control inhibitor (control compound) solution at 2-fold final concentration were prepared with the human liver microsome solution on ice. The test wells were added with 30 mL of the test compound solution and the control inhibitor solution respectively, and then added with 15 mL of the substrate for duplication. […]"}, "[2]": {"experiment": "Mouse pharmacokinetic test (oral gavage)", "type": "in vivo", "conditions": "plasma, male ICR mice, oral administration by gavage, 10 mg/kg", "description": "Male ICR mice (20 to 25 g) were used, and fasted overnight. Three mice were taken and orally administered by gavage (10 mg/kg). Blood was collected before the administration, and at 15 min, 30 min, 1 h, 2 h, 4 h, 8 h, and 24 h after the administration. 6,800 g of the blood samples were centrifuged at 2 to 8°C for 6 min, and plasma was collected and stored at -80°C. The plasma at each time point was taken and added with an acetonitrile solution containing internal standard in 3 to 5 times the amount, vortexed and mixed for 1 min, and centrifuged at 13,000 rpm/min at 4°C for 10 min. The supernatant was collected, added with water in 3 times the amount, and mixed. An appropriate amount of the mixture was taken for LC-MS/MS analysis. The main pharmacokinetic parameters were analyzed using WinNonlin 7.0 software with non-compartmental model."}, "H358 cells": {"tested_on": "H358 cells", "experiment": "Inhibition of 3D cell proliferation (3D CellTiter-Glo)", "type": "cell-based", "description": "H358 cells were seeded in a T75 culture flask, and cultured in a RPMI 1640 medium containing 10% FBS for 2 days for subsequent experiments in which the cells would be cultured or seeded on a 384-well plate.\nOn day 1, the cells were seeded on the 384-well plate, with 40 µL of medium added per well and serially diluted compounds or DMSO added per well, and an additional well without seeded cells but with medium was set up as a blank control. After culture at 37°C, 5% CO2 for 7 days, the plate was added with 3D CellTiter-Glo reagent (Promega, Cat. No. G9683) on day 8, shaken at 320 rpm for 20 min, and left at room temperature for 2 h. Luminescence signals were read on a multifunctional microplate reader. Cell viability inhibition rate was calculated as: [formula]\nIC50 values were calculated using Graphpad 5 software."}, "[3]": {"experiment": "Plasma protein binding rate by equilibrium dialysis", "type": "in vitro ADME", "conditions": "compound 1 µM, equilibrium dialysis 37°C", "description": "Plasma protein binding rate of compounds was detected by equilibrium dialysis (HTDialysis, HTD 96b). The compound was prepared into a […] stock solution with DMSO, and then 25-fold diluted with 0.05 M sodium phosphate buffer as a working solution. A blank 96-well plate was taken and preloaded with 380 µL of plasma per well. The plasma was then added with the working solution at 20 µL/well and mixed well, with the compound at a final concentration of 1 µM, containing 0.2% DMSO per well.\n100 µL of 0.05 M sodium phosphate buffer was added to the receiver-side of each dialysis chamber (HTD 96b), and then 100 µL of plasma containing the compound was added to the supply-side. The dialysis chamber was covered with a plastic lid, shaken, and incubated at 37°C for 5 h.\nAfter incubation, 25 µL of sample was taken from each of the supply-side and the receiver-side of the dialysis chamber, and placed in the blank 96-well plate. An equal volume of plasma was added to each of the supply-side samples while an equal volume of 0.05 M sodium phosphate buffer was added to each of the receiver-side samples, and mixed well. […]\nPlasma protein binding rate and free fraction were calculated using the following formulas: % binding rate = 100 × ([supply-side concentration]5h - [receiver-side concentration]5h)/[supply-side concentration]5h. % free fraction = 100 - % binding rate"}},
  "note": "Where two headings read alike, the source gives them in different places.",
  "data": [
    {"smiles": "Cc1nc(N[C@H](C)c2cccc(S(F)(F)(F)(F)F)c2)c2cn(C3(CF)CC3)c(=O)cc2n1", "note": "[Compound of formula I, (R)-6-(1-(fluoromethyl)cyclopropyl)-2-methyl-4-((1-(3-(pentafluorosulfanyl)phenyl)ethyl)amino)pyrido[4,3-d]pyrimidin-7(6H)-one]", "values": [
      {"measurement": "At the end of treatment Average tumor weight", "setting": "LOVO colorectal cancer", "value": 0.75, "unit": "g"},
      {"measurement": "Tumor weight inhibition rate (relative to the vehicle group)", "setting": "LOVO colorectal cancer", "value": 46, "unit": "%"},
      {"measurement": "Average tumor weight at the end of the treatment", "setting": "[1]; Mia Paca-2, 25 mg/kg", "value": 0.35, "unit": "g"},
      {"measurement": "Tumor weight inhibition rate (relative to the vehicle group)", "setting": "[1]; Mia Paca-2, 25 mg/kg", "value": 70, "unit": "%"},
      {"measurement": "Average tumor weight at the end of the treatment", "setting": "[1]; Mia Paca-2, 50 mg/kg", "value": 0.27, "unit": "g"},
      {"measurement": "Tumor weight inhibition rate (relative to the vehicle group)", "setting": "[1]; Mia Paca-2, 50 mg/kg", "value": 76, "unit": "%"},
      {"measurement": "inhibitory effect on Mia Paca-2 tumor growth", "setting": "[1]; alone (single drug)", "value": "significant inhibitory effect"},
      {"measurement": "efficacy of combined use compared with single use", "setting": "[1]; combination with trametinib vs single use, Mia Paca-2", "value": "more effective than the single use"},
      {"measurement": "inhibitory effect on Mia Paca-2 tumor growth", "setting": "[1]; in combination with trametinib", "value": "significant inhibitory effect"},
      {"measurement": "inhibition at 5 min, 10 µM", "setting": "CYP3A4; pH 7.4, probe midazolam, substrate midazolam, read-out: CYP inhibition rate (%) CYP3A4 (midazolam)", "value": 0, "unit": "%"},
      {"measurement": "inhibition at 5 min, 10 µM", "setting": "CYP3A4; pH 7.4, probe testosterone, substrate testosterone, read-out: CYP inhibition rate (%) CYP3A4 (testosterone)", "value": 0, "unit": "%"},
      {"measurement": "AUC(0-t)", "setting": "[2]", "value": 3080, "unit": "ng·h/mL"},
      {"measurement": "Cmax", "setting": "[2]", "value": 1440, "unit": "ng/mL"},
      {"measurement": "Tmax", "setting": "[2]", "value": 1, "unit": "h"},
      {"measurement": "half-life", "setting": "[2]", "value": 58.2, "unit": "min"},
      {"measurement": "IC50", "setting": "H358 cells; Homo sapiens, NCI-H358, 168 h, 3D cell proliferation in H358 cells, 7 days culture, 3D CellTiter-Glo", "value": 11.5, "unit": "nM"},
      {"measurement": "inhibitory effect on the 3D proliferation of H358 cells", "setting": "H358 cells; summary statement", "value": "strong inhibitory effect"},
      {"measurement": "fraction unbound at 5 h, 1 µM", "setting": "[3]; human plasma, read-out: free fraction in plasma, Human (%)", "value": 0.017},
      {"measurement": "fraction unbound at 5 h, 1 µM", "setting": "[3]; mouse plasma, read-out: free fraction in plasma, Mouse (%)", "value": 0.011}
    ]}
  ]
}
